One test concerns the target T1, human SHIP1 Ptase‐C2 (Homo sapiens, UniProt Q92835).
T1 sequence (Q92835 395-898): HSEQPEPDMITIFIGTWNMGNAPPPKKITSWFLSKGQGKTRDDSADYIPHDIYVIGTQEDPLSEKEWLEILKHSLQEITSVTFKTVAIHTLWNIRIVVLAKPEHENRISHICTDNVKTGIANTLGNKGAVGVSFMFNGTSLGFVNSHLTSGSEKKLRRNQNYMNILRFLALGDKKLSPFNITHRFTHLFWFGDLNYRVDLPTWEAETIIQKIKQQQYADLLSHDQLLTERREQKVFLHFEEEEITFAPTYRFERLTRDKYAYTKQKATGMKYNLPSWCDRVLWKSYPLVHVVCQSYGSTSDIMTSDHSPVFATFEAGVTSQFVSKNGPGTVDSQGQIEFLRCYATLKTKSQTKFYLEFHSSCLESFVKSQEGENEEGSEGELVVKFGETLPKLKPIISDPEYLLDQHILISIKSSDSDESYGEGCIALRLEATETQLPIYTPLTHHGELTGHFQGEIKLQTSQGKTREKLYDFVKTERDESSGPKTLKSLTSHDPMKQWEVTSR
In words: Malachite green enzyme assay, hSHIP1^395‐898 Ptase‐C2, substrate PtdIns. Type of test: biochemical.

The target of test [1] is T2, HiBit‐SHIP1 (full‐length human SHIP1) (Homo sapiens, UniProt Q92835).
T2 sequence (Q92835 1-1189): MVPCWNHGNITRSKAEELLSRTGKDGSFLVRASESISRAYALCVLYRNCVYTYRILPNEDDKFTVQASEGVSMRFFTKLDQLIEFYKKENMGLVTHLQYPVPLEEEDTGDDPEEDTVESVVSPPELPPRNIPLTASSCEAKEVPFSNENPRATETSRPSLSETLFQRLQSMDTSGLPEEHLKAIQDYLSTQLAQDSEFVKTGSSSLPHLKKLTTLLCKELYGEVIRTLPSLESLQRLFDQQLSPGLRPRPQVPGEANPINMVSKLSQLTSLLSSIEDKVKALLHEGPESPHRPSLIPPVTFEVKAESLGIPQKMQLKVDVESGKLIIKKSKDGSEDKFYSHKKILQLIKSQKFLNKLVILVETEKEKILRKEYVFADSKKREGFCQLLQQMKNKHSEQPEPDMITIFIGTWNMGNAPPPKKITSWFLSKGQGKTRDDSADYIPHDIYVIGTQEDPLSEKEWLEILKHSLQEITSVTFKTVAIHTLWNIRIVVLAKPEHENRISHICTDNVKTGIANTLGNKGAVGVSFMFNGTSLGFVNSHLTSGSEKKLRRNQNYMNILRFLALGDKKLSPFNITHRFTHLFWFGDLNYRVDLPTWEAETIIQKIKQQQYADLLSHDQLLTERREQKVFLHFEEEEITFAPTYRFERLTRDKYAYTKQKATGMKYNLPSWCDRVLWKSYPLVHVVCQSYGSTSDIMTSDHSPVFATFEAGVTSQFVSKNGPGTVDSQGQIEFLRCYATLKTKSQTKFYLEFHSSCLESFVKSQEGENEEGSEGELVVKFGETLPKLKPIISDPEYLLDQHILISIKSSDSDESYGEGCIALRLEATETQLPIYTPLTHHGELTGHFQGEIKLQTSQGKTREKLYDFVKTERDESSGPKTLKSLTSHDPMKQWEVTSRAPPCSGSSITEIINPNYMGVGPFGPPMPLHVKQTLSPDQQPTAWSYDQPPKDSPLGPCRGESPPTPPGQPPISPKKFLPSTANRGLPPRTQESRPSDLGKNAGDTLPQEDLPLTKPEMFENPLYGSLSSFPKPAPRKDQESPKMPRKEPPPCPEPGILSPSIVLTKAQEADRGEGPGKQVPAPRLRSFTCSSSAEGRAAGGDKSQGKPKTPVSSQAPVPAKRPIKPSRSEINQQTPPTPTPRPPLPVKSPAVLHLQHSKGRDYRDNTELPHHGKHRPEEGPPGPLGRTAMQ
In words: SplitLuc cellular thermal shift assay. The test is classed as cell-based. The following applies: for CETSA % (percent luminescence at the highest dose): highest dose (100 μM); for CETSA TE (target engagement): significant if difference from control at highest dose >3SD.

A further test deals with primary mouse microglia. In words: High‐content imaging phagocytosis assay in primary mouse microglia. Type of test: cell-based.
The next test deals with HMC3 cells. In words: High‐content imaging assay. The test is classed as cell-based.
Another test deals with BV2 cells. In words: High‐content imaging assay. Type of test: cell-based, mouse.

Compound `CC(C)CCC[C@@H](C)[C@H]1CC[C@H]2[C@@H]3CCC4C[C@H](N)CC[C@]4(C)[C@H]3CC[C@]12C` (stereo partly drawn) [Compound 13, 3α‐aminocholestane, reference compound] showed an IC50 on human SHIP1 Ptase‐C2 of 201 µM.
Take `Clc1ccc(COc2cncc(-c3cnn(C4CCNCC4)c3)c2)c(Cl)c1` [Compound 23, 3‐((2,4‐Dichlorobenzyl)oxy)‐5‐(1‐(piperidin‐4‐yl)‐1H‐pyrazol‐4‐yl)pyridine, reference compound]: in test [1], the “CETSA % (percent luminescence at the highest dose)” value was 27 ± 15 (3) % and the “CETSA TE (target engagement)” value is given as “Yes”. On human SHIP1 Ptase‐C2, this compound showed an IC50 of 251 µM. Further, the half-maximal effective concentration (EC50) in the test with primary mouse microglia (Mus musculus, Microglia, read-out: phagocytosis EC50) turned out to be 0.54 µM. The increased phagocytosis in the test on primary mouse microglia (primary mouse microglia from neonate mice) is reported as 1.5 fold.
Consider `CC(C)c1ccc(C2C(C#N)=C3N=C(N)c4ccccc4N3C3=C2C(=O)CCC3)cc1` (stereo not shown) [Compound 3], for which, in test [1], the half-maximal activity concentration (AC50) came out at 173 µM, the “CETSA % (percent luminescence at the highest dose)” value is 63 ± 12 (2) % and the “CETSA TE (target engagement)” value was “Yes”. In addition, the IC50 on human SHIP1 Ptase‐C2 stood at 26.8 µM.
In the case of `CC(=O)C1=C(C)Nc2sc(C(=O)c3ccc(Cl)c(Cl)c3)c(N)c2C1c1cccnc1` (stereo not shown) [Compound 2], the “cellular phenotype in high‐content imaging (in words)” value in the test on HMC3 cells was “inactive”. For the same compound, the “cellular phenotype in high‐content imaging (in words)” value in the test on BV2 cells is “inactive”. Further, in test [1], the AC50 stood at 46 ± 5 µM, the “CETSA % (percent luminescence at the highest dose)” value is recorded as 30 ± 7 (2) % and the “CETSA TE (target engagement)” value is “Yes”. On human SHIP1 Ptase‐C2, this compound came in with an IC50 of 18.6 µM.

For orientation: IC50 means the concentration at which inhibition is half-maximal. What is called EC50 is the concentration that produces a half-maximal response. In general, AC50 refers to the concentration at which the activity in the assay is half-maximal.
